# Assay results published in patent US8546085B2, “Methods of identifying modulators of the bitter taste receptor TAS2R44” (Givaudan SA, priority 2008, dated 2013).
# Peptide text beside a SMILES is read from it.
# What was measured:
# Format in all cases: cell-based
# TAS2R44 [1] = target: T1, TAS2R44 (Homo sapiens, UniProt P59538, L162M); assay: Fluo-4 calcium assay, activation of TAS2R44 by agonists; conditions: for EC50: HEK293T cells stably expressing Gα16-gustducin44 and TAS2R44, nonlinear regression, read-out: calculated EC50 value for TAS2R44; for calcium signaling upon addition: cells stably expressing human TAS2R44
# T1 construct: The full length gene of human TAS2R44 was amplified by polymerase chain reaction (PCR) using gene-specific primers that span the entire coding region; RSS tag (first 45 amino acids of rat somatostatin receptor subtype 3, plus EcoRI site) (N); expressed in transfected cells; host or cells: HEK293T/Galpha16-gustducin 44 cells, stably transfected with pcDNA3.1Zeo-TAS2R44
# T1 sequence (P59538 with tags, fused parts or gaps L162M): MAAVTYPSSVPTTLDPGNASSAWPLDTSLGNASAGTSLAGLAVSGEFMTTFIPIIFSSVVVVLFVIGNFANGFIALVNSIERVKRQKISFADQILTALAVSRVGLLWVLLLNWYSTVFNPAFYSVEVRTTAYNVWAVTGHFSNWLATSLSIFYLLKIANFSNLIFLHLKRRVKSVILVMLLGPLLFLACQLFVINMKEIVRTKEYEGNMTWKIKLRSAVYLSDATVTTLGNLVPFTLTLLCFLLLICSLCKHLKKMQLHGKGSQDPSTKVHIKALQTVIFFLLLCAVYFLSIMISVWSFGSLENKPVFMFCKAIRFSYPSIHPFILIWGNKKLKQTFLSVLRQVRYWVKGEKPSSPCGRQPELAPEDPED
# Procedure: Fluo-4AM (Invitrogen, Carlsbad, Calif., US) is a fluorescent indicator of intracellular calcium dynamics (change in concentration) and allows monitoring changes in the calcium concentration, particularly an increase in response to receptor activation occurring after agonist exposure.
# At day 0, the HEK293T cell line expressing Gα16-gustducin44 and a TAS2R bitter taste receptor formed as described in examples 2b or 2c was seeded in antibiotic-free growth medium (standard DMEM with 10% (v/v) heat-inactivated fetal bovine serum, 2 mM L-glutamine[…]) into black wall/clear bottom 96-well plates, coated with poly(ethylenimine) (0.005% v/v) at a concentration of 15,000 cells per well and incubated for 48 hours in humidified atmosphere (37° C., 5% CO2).
# At the time of the assay, the growth medium was discarded and the cells were in humidified atmosphere (37° C., 5% CO2) for 1 hour with 50 μl of loading buffer consisting of 1.5 μM Fluo-4 AM and […] probenicid (Sigma-Aldrich, St. Louis, Mo., US) in DMEM.
# Afterwards, the 96-well plate was washed 5 times with 100 μl of assay buffer (130 mM NaCl, 5 mM KCl, 10 mM HEPES, 2 mM CaCl2, and 5 mM dextrose, pH 7.4) per well, using an automated plate washer (BioTek). The plate was further incubated for 30 minutes at room temperature in the dark to allow for complete de-esterification of the Fluo-4. Afterwards the plate was washed 5 times with 100 μl of assay buffer per well, and reconstituted with 100 μl of assay buffer per well.
# For assay reading, the plate was placed in a Fluorometric Imaging Plate Reader (FLIPR) (FLIPR-TETRA™, Molecular Devices, Sunnyvale, Calif., US), and receptor activation was initiated by addition of 100 μl of a twofold concentrated agonist stock solution (to give the desired agonist end concentration when added to the 100 microliter assay buffer volume), which was prepared in assay buffer.
# Fluorescence was continuously monitored for 20 seconds to give a signal baseline (averaged to give F0) prior to agonist addition and for 120 seconds after agonist addition. The change in signal divided by F0 gives ΔF/F0 indicated in the table, with ΔF being the maximum signal occurring within the 120 seconds minus the minimum signal (occurring within the 120 seconds after agonist addition.
# All data was collected from at least two independent experiments each carried out in triplicate.
# A concentration-response analysis was performed and EC50 values were calculated by nonlinear regression using the function f(x)=(a−d)/(1+(x/C)^nh)+d; with a=minimum signal, d=maximum signal, nh=hill coefficient, C=EC50. , and x=agonist concentration. EC50 is the molar concentration of an agonist which produces 50% of the maximum possible effective response for that agonist.
# (§1) The obtained calcium signals were corrected for the response of cells expressing only the G Proteinα subunit (Gα16-gustducin44) and normalized to the fluorescence of cells prior to the stimulus using ΔF/F0 (Fmax−Fmin/F0).
# To confirm that the cell line formed in example 2c stably expresses the bitter taste receptor TAS2R44, a concentration-response curve for saccharin, a known agonist of TAS2R44, was generated. […] The standard deviation (+/−STD) is also indicated.
# The intracellular calcium response following addition of steviol glycosides (stevioside, rebaudioside A) was determined in HEK293T cell line stably expressing Gα16-gustducin44 and TAS2R44 formed as described in example 2a.
# TAS2R44 [2] = target: T1, TAS2R44; assay: Fluo-4 calcium assay, antagonists of the response of TAS2R44 to steviol glycosides; conditions: without bitter blocker
# Procedure: All cells were HEK293T cells stably expressing Gα16-gustducin44, or expressing Gα16-gustducin44 and TAS2R44.
# The method was carried out as described in example 3 subject to the following modifications:
# The samples were tested with and without candidate bitter blocker and the signals were compared. The candidate bitter blocker was dissolved in dimethylsulfoxide (DMSO), and a negative control with equivalent DMSO concentration (0.02%) was performed accordingly to exclude a potential inhibitory effect of the solvent. Furthermore, a control with the relevant steviol glycoside and DMSO (0.02%) was performed accordingly (see table in example 5).
# All data was calculated as ΔF/F0 and the standard deviation (STD) is indicated in each table, see results for the identified bitter blocker 4-(2,2,3-trimethyl-cyclopentyl)-butanoic acid below.
# [3] = system: HEK293T Gα16gustducin44 cells (that do not express TAS2R44); assay: Fluo-4 calcium assay, negative control cells without TAS2R44; conditions: for change in signal in the negative control: cells expressing only Gα16-gustducin44
# Text: as §1
# As a negative control to determine unspecific signals, each of the applied concentrations of each F(I) steviol glycoside was applied to cells expressing only Gα16gustducin44.
compound,measurement,setting,value
COC(=O)[C@H](Cc1ccccc1)NC(=O)[C@@H](N)CC(=O)O [aspartame] (H-Asp-Phe-OMe),agonist for TAS2R44,TAS2R44 [1]; sweeteners with a known bitter off-note,not to be agonists
C=C1C[C@@]23CC[C@H]4[C@@](C)(CCC[C@@]4(C)C(=O)O[C@@H]4O[C@H](CO)[C@@H](O)[C@H](O)[C@H]4O)[C@@H]2CC[C@]1(O[C@@H]1O[C@H](CO)[C@@H](O)[C@H](O[C@@H]2O[C@H](CO)[C@@H](O)[C@H](O)[C@H]2O)[C@H]1O[C@@H]1O[C@H](CO)[C@@H](O)[C@H](O)[C@H]1O)C3 [rebaudioside A],rebaudioside positive control average ΔF/F0,TAS2R44 [2]; 0.7 mM rebaudioside A (EC50) alone,0.4625
same,change in signal in the negative control,[3],No significant change
same,Neg. Control ΔF/F0,[3]; rebaudioside A 0.004 mM,0.061
same,Neg. Control ΔF/F0,[3]; rebaudioside A 0.008 mM,0.0635
same,Neg. Control ΔF/F0,[3]; rebaudioside A 0.016 mM,0.054
same,Neg. Control ΔF/F0,[3]; rebaudioside A 0.031 mM,0.063
same,Neg. Control ΔF/F0,[3]; rebaudioside A 0.063 mM,0.0685
same,Neg. Control ΔF/F0,[3]; rebaudioside A 0.125 mM,0.087
same,Neg. Control ΔF/F0,[3]; rebaudioside A 0.625 mM,0.1115
same,Neg. Control ΔF/F0,[3]; rebaudioside A 2.500 mM,0.153
same,Neg. Control ΔF/F0,[3]; rebaudioside A 5.000 mM,0.208
same,EC50,TAS2R44 [1],700 µM
same,calcium signaling upon addition,TAS2R44 [1],significant increase
same,TAS2R44 ΔF/F0,TAS2R44 [1]; rebaudioside A 0.004 mM,0.07687
same,TAS2R44 ΔF/F0,TAS2R44 [1]; rebaudioside A 0.008 mM,0.07938
same,TAS2R44 ΔF/F0,TAS2R44 [1]; rebaudioside A 0.016 mM,0.0975
same,TAS2R44 ΔF/F0,TAS2R44 [1]; rebaudioside A 0.031 mM,0.1681
same,TAS2R44 ΔF/F0,TAS2R44 [1]; rebaudioside A 0.063 mM,0.1619
same,TAS2R44 ΔF/F0,TAS2R44 [1]; rebaudioside A 0.125 mM,0.32
same,TAS2R44 ΔF/F0,TAS2R44 [1]; rebaudioside A 0.625 mM,0.7025
same,TAS2R44 ΔF/F0,TAS2R44 [1]; rebaudioside A 2.500 mM,0.7819
same,TAS2R44 ΔF/F0,TAS2R44 [1]; rebaudioside A 5.000 mM,0.6262
O=C1NS(=O)(=O)c2ccccc21 [saccharin],change in signal in the negative control,[3],did not show any significant change in signal
same,Neg. Control ΔF/F0,[3]; saccharin 10.0000 mM,0.020
same,TAS2R44 ΔF/F0,TAS2R44 [1]; saccharin 0.0391 mM,0.024
same,TAS2R44 ΔF/F0,TAS2R44 [1]; saccharin 0.0781 mM,0.075
same,TAS2R44 ΔF/F0,TAS2R44 [1]; saccharin 0.1563 mM,0.181
same,TAS2R44 ΔF/F0,TAS2R44 [1]; saccharin 0.3125 mM,0.388
same,TAS2R44 ΔF/F0,TAS2R44 [1]; saccharin 0.6250 mM,0.668
same,TAS2R44 ΔF/F0,TAS2R44 [1]; saccharin 1.2500 mM,0.947
same,TAS2R44 ΔF/F0,TAS2R44 [1]; saccharin 2.5000 mM,1.150
same,TAS2R44 ΔF/F0,TAS2R44 [1]; saccharin 5.0000 mM,1.258
same,TAS2R44 ΔF/F0,TAS2R44 [1]; saccharin 10.0000 mM,1.354
C=C1C[C@@]23CC[C@H]4[C@@](C)(CCC[C@@]4(C)C(=O)O[C@@H]4O[C@H](CO)[C@@H](O)[C@H](O)[C@H]4O)[C@@H]2CC[C@]1(O[C@@H]1O[C@H](CO)[C@@H](O)[C@H](O)[C@H]1O[C@@H]1O[C@H](CO)[C@@H](O)[C@H](O)[C@H]1O)C3 [stevioside],stevioside positive control average ΔF/F0,TAS2R44 [2]; 2.2 mM stevioside (EC50) alone,0.733
same,change in signal in the negative control,[3],No significant change
same,Neg. Control ΔF/F0,[3]; stevioside 0.004 mM,0.061
same,Neg. Control ΔF/F0,[3]; stevioside 0.008 mM,0.059
same,Neg. Control ΔF/F0,[3]; stevioside 0.016 mM,0.059
same,Neg. Control ΔF/F0,[3]; stevioside 0.031 mM,0.074
same,Neg. Control ΔF/F0,[3]; stevioside 0.063 mM,0.065
same,Neg. Control ΔF/F0,[3]; stevioside 0.125 mM,0.063
same,Neg. Control ΔF/F0,[3]; stevioside 0.625 mM,0.062
same,Neg. Control ΔF/F0,[3]; stevioside 2.500 mM,0.010
same,Neg. Control ΔF/F0,[3]; stevioside 5.000 mM,0.435
same,EC50,TAS2R44 [1],2200 µM
same,calcium signaling upon addition,TAS2R44 [1],significant increase
same,TAS2R44 ΔF/F0,TAS2R44 [1]; stevioside 0.004 mM,0.082
same,TAS2R44 ΔF/F0,TAS2R44 [1]; stevioside 0.008 mM,0.079
same,TAS2R44 ΔF/F0,TAS2R44 [1]; stevioside 0.016 mM,0.096
same,TAS2R44 ΔF/F0,TAS2R44 [1]; stevioside 0.031 mM,0.112
same,TAS2R44 ΔF/F0,TAS2R44 [1]; stevioside 0.063 mM,0.136
same,TAS2R44 ΔF/F0,TAS2R44 [1]; stevioside 0.125 mM,0.230
same,TAS2R44 ΔF/F0,TAS2R44 [1]; stevioside 0.625 mM,0.451
same,TAS2R44 ΔF/F0,TAS2R44 [1]; stevioside 2.500 mM,0.677
same,TAS2R44 ΔF/F0,TAS2R44 [1]; stevioside 5.000 mM,1.155
